In BindingDB's records for doi:10.1016/s0960-894x(98)00187-5 (Novartis Pharma, 1999) one finds Ki data, which are given here for one compound.

This assay has as its target Somatostatin receptor type 2 (Rattus norvegicus) (UniProt P30680). As to the kind of experiment: Binding affinity for SSTR2 receptors of rat cortex membranes was determined by using [125I][Tyr3]-octreotide radioligand.

A word on the Ki: it is a dissociation constant, usually derived from enzyme kinetics or from competition with a known ligand. Lower therefore signals higher affinity.

Chain of Somatostatin receptor type 2 (Rattus norvegicus) (P30680 whole entry, looked up): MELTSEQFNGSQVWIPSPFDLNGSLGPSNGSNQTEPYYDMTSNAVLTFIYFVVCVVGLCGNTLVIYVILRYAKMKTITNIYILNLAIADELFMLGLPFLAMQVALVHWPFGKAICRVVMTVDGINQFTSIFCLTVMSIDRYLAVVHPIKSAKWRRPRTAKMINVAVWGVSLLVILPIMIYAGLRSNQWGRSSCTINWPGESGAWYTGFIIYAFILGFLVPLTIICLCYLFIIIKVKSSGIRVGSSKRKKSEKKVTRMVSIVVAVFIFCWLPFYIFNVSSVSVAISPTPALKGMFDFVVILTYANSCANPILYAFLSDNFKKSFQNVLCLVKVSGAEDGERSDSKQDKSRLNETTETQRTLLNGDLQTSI

For `C[C@@H](O)[C@@H]1NC(=O)[C@H](CCCCN)NC(=O)[C@@H](Cc2c[nH]c3ccccc23)NC(=O)[C@H](Cc2ccccc2)NC(=O)[C@@H](NC(=O)[C@@H](Cc2ccccc2)NC(=O)CN2CCN(CC(=O)O)CCN(CC(=O)O)CCN(CC(=O)O)CC2)CSSC[C@@H](C(=O)N[C@H](CO)[C@@H](C)O)NC1=O`, the affinity corresponds to a Ki of 3.2 nM.
